Tests used:
[1] = target: T1, Proto-oncogene tyrosine-protein kinase Src (Homo sapiens, UniProt P12931); test: Binding affinity to p60 src SH2 domain.
[2] = target: Tyrosine-protein kinase ABL1 (Homo sapiens, UniProt P00519); test: Inhibition of Abl SH2 domain binding PDGF receptor
[3] = Inhibition of PLC(C) SH2 domain binding to PDGF receptor
[4] = target: T2, Tyrosine-protein phosphatase non-receptor type 11 (Homo sapiens, UniProt Q06124); test: Inhibition of Syp(N) SH2 domain block binding to PDGF receptor
T2 sequence (Q06124 whole entry): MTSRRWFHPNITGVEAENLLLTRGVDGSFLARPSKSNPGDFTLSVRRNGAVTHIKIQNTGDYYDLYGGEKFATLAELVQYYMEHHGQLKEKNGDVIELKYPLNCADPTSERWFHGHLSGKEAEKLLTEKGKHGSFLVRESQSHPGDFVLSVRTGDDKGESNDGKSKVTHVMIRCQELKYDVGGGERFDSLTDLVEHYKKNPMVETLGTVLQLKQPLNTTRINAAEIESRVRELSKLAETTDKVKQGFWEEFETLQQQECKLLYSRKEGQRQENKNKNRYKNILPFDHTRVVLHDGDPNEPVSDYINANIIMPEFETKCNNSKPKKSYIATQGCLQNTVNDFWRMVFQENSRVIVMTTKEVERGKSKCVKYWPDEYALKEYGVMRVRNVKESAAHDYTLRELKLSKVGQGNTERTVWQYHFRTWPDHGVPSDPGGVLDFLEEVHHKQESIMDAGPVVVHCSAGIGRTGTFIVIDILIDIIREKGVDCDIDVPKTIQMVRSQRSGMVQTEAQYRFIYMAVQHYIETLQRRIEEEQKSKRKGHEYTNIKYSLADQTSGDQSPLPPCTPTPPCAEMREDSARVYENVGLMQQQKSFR

[5] = target: Growth factor receptor-bound protein 2 (Homo sapiens) (UniProt P62993); test: Inhibition of Grb2 SH2 domain binding to PDGF receptor 100 uM
[6] = target: T1, Proto-oncogene tyrosine-protein kinase Src; test: Inhibition of src SH2 domain binding to PDGF receptor
[7] = target: Growth factor receptor-bound protein 2 (Homo sapiens) (UniProt P62993); test: Inhibition of Grb2 SH2 domain binding to PDGF receptor

T1 sequence (P12931 2-536 limits assumed): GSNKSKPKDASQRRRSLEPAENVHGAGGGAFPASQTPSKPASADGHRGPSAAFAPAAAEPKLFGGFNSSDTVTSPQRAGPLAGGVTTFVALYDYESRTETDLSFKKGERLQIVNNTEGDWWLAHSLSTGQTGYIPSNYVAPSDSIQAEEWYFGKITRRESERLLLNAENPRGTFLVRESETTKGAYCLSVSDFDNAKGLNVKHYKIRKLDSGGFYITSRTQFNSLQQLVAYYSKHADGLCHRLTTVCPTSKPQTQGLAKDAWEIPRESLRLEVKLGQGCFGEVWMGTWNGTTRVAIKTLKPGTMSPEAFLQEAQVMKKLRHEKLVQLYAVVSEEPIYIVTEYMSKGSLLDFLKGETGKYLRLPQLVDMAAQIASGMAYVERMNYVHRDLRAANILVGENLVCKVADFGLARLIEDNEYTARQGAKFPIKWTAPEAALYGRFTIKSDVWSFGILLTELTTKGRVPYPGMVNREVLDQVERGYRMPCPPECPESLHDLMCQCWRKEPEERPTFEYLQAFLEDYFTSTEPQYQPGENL
Tyrosine-protein kinase ABL1, sequence (P00519 whole entry, the tested form may be a part): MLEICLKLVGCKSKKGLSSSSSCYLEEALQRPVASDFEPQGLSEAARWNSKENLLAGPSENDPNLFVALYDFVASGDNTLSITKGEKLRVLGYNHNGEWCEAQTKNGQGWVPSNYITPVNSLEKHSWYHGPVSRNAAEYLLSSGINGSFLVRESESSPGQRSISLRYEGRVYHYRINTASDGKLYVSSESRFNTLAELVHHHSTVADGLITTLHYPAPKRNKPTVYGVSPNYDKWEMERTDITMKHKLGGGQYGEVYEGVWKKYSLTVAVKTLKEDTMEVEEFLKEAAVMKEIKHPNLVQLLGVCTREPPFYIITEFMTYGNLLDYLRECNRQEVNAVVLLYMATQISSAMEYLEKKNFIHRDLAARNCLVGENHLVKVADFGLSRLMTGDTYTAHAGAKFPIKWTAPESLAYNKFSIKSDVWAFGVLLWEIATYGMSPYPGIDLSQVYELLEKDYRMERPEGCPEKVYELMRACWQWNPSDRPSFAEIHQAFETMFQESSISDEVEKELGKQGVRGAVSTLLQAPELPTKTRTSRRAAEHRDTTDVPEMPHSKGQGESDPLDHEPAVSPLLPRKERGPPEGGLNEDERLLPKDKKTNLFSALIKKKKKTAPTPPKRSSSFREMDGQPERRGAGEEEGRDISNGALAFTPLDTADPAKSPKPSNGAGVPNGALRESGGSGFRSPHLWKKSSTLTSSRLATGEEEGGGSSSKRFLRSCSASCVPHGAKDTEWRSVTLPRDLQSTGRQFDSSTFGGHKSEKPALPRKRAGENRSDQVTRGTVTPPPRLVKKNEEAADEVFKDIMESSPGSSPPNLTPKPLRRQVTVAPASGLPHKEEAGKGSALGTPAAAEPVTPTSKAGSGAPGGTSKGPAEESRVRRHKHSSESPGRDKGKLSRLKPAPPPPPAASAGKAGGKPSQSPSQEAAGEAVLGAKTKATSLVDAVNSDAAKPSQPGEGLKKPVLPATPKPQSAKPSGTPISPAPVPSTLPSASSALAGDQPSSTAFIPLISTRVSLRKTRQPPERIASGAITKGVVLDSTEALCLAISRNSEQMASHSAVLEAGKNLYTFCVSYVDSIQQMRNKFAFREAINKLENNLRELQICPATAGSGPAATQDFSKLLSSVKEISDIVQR

| IC50 [1] [µM] | SMILES | also measured |
| --- | --- | --- |
| 21.3 | NC(=O)[C@H](Cc1c[nH]c2ccccc12)NC(=O)C(CCC(=O)O)NC(=O)CCc1ccc(OP(=O)(O)O)cc1 (some centres not stated) | – |
| 20 | CC[C@H](C)[C@H](NC(=O)[C@H](CCC(=O)O)NC(=O)[C@H](CCC(=O)O)NC(=O)[C@H](C)Cc1ccc(OP(=O)(O)O)cc1)C(=O)N[C@@H](CCC(=O)O)C(=O)O | – |
| 4.5 | CC[C@H](C)[C@H](NC(=O)[C@H](CCC(=O)O)NC(=O)[C@H](CCC(=O)O)NC(=O)C(Cc1ccc(OP(=O)(O)O)cc1)c1ccc2ccccc2c1)C(=O)N[C@@H](CCC(=O)O)C(=O)O (single isomer, unassigned; isomer 2) | – |
| 2.1 | CC[C@H](C)[C@H](NC(=O)C(CCC(=O)O)NC(=O)C(CCC(=O)O)NC(=O)C(Cc1ccc(OP(=O)(O)O)cc1)c1cccc(O)c1)C(=O)N[C@@H](CCC(=O)O)C(=O)O (single isomer, unassigned; isomer 1) | – |
| 9.3 | CC[C@H](C)[C@H](NC(=O)[C@H](CCC(=O)O)NC(=O)[C@H](CCC(=O)O)NC(=O)C(Cc1ccc(OP(=O)(O)O)cc1)c1ccccc1)C(=O)N[C@@H](CCC(=O)O)C(=O)O (single isomer, unassigned; isomer 2) | – |
| 2.8 | CC[C@H](C)[C@H](NC(=O)[C@H](CCC(=O)O)NC(=O)[C@H](CCC(=O)O)NC(=O)C(Cc1ccc(OP(=O)(O)O)cc1)c1ccc2ccccc2c1)C(=O)N[C@@H](CCC(=O)O)C(=O)O (stereo in doubt) | – |
| 5.5 | CC[C@H](C)[C@H](NC(=O)[C@H](CCC(=O)O)NC(=O)[C@H](CCC(=O)O)NC(=O)/C=C/c1ccc(OP(=O)(O)O)cc1)C(=O)N[C@@H](CCC(=O)O)C(=O)O | – |
| 3.4 | CC[C@H](C)[C@H](NC(=O)[C@H](CCC(=O)O)NC(=O)[C@H](CCC(=O)O)NC(=O)CCc1ccc(OP(=O)(O)O)cc1)C(=O)N[C@@H](CCC(=O)O)C(=O)O | – |
| 1.4 | CC[C@H](C)[C@H](NC(=O)[C@H](CCC(=O)O)NC(=O)[C@H](CCC(=O)O)NC(=O)C(Cc1ccc(OP(=O)(O)O)cc1)c1ccccc1O)C(=O)N[C@@H](CCC(=O)O)C(=O)O (some centres not stated) | – |

More lines, now with the values behind:

| SMILES | IC50 [1] [µM] | also measured |
| --- | --- | --- |
| CC[C@H](C)[C@H](NC(=O)[C@H](CCC(=O)O)NC(=O)[C@H](CCC(=O)O)NC(=O)[C@@H](CC(=O)O)Cc1ccc(OP(=O)(O)O)cc1)C(=O)N[C@@H](CCC(=O)O)C(=O)O | 0.35 | – |
| CC[C@H](C)[C@H](NC(=O)[C@H](CCC(=O)O)NC(=O)[C@H](CCC(=O)O)NC(=O)CCc1c(C)cc(OP(=O)(O)O)cc1C)C(=O)N[C@@H](CCC(=O)O)C(=O)O | 4.5 | – |
| CC[C@H](C)[C@H](NC(=O)[C@H](CCC(=O)O)NC(=O)[C@H](CCC(=O)O)NC(=O)[C@@H](Cc1ccc(OP(=O)(O)O)cc1)NC(C)=O)C(=O)N[C@@H](CCC(=O)O)C(=O)O | – | IC50 [2]: 15.3 µM; IC50 [3]: > 100 µM; IC50 [4]: > 100 µM; inhibition [5]: 45.2% |
| C[C@H](Cc1ccc(OP(=O)(O)O)cc1)C(=O)NC(CCC(=O)O)C(=O)N[C@@H](Cc1c[nH]c2ccccc12)C(N)=O (some centres not stated) | 13.4 | – |
| NC(=O)[C@H](Cc1c[nH]c2ccccc12)NC(=O)C(CCC(=O)O)NC(=O)/C=C/c1ccc(OP(=O)(O)O)cc1 (some centres not stated) | 30 | – |
| CC[C@H](C)[C@H](NC(=O)[C@H](CCC(=O)O)NC(=O)[C@H](CCC(=O)O)NC(=O)C(Cc1ccc(OP(=O)(O)O)cc1)c1cccc2ccccc12)C(=O)N[C@@H](CCC(=O)O)C(=O)O (stereo in doubt; form 1) | 7.3 | – |
| CC[C@H](C)[C@H](NC(=O)[C@H](CCC(=O)O)NC(=O)[C@H](CCC(=O)O)NC(=O)/C(=C/c1ccc(OP(=O)(O)O)cc1)C(=O)O)C(=O)N[C@@H](CCC(=O)O)C(=O)O | 5 | – |
| NC(=O)[C@H](Cc1c[nH]c2ccccc12)NC(=O)C(CCC(=O)O)NC(=O)C(Cc1ccc(OP(=O)(O)O)cc1)c1ccc2ccccc2c1 (some centres not stated) | 40 | – |
| NC(=O)[C@H](Cc1c[nH]c2ccccc12)NC(=O)C(CCC(=O)O)NC(=O)C(Cc1ccc(OP(=O)(O)O)cc1)c1ccccc1 (some centres not stated) | 28 | – |
| Cc1cc(OP(=O)(O)O)cc(C)c1CCC(=O)NC(CCC(=O)O)C(=O)N[C@@H](Cc1c[nH]c2ccccc12)C(N)=O (some centres not stated) | 30 | – |
| CC[C@H](C)[C@H](NC(=O)[C@H](CCC(=O)O)NC(=O)[C@H](CCC(=O)O)NC(=O)C(Cc1ccc(OP(=O)(O)O)cc1)c1cccc2ccccc12)C(=O)N[C@@H](CCC(=O)O)C(=O)O (stereo in doubt; form 2) | 2.6 | – |
| CC[C@H](C)[C@H](NC(=O)[C@H](CCC(=O)O)NC(=O)[C@H](CCC(=O)O)NC(=O)C(Cc1ccc(OP(=O)(O)O)cc1)c1ccccc1)C(=O)N[C@@H](CCC(=O)O)C(=O)O (stereo in doubt) [listing 1 of 2 here] | 1.9 | IC50 [2]: > 100 µM; IC50 [3]: > 100 µM; IC50 [4]: > 100 µM; IC50 [6]: 7.35 µM |
| CC[C@H](C)[C@H](NC(=O)[C@H](CCC(=O)O)NC(=O)[C@H](CCC(=O)O)NC(=O)C(Cc1ccc(OP(=O)(O)O)cc1)c1ccccc1)C(=O)N[C@@H](CCC(=O)O)C(=O)O (stereo in doubt) [listing 2 of 2 here] | – | IC50 [7]: > 100 µM |
| NC(=O)[C@H](Cc1c[nH]c2ccccc12)NC(=O)C(CCC(=O)O)NC(=O)C(Cc1ccc(OP(=O)(O)O)cc1)c1cccc2ccccc12 (some centres not stated) | 30 | – |
| CC(=O)N[C@@H](Cc1ccc(OP(=O)(O)O)cc1)C(=O)NC(CCC(=O)O)C(=O)N[C@@H](Cc1c[nH]c2ccccc12)C(N)=O (some centres not stated) | 4 | – |
| CC[C@H](C)[C@H](NC(=O)C(CCC(=O)O)NC(=O)C(CCC(=O)O)NC(=O)C(Cc1ccc(OP(=O)(O)O)cc1)c1cccc(O)c1)C(=O)N[C@@H](CCC(=O)O)C(=O)O (stereo in doubt) | 3.3 | – |

— ChEMBL document CHEMBL1129087, “Novel phosphotyrosine mimetics in the design of peptide ligands for pp60src SH2 domain” (Bioorg Med Chem Lett, 1996)
